Literature values in patent US20070289889A1, “Biomarkers For The Prediction Of Drug-In Duced Diarrhea” (NOVARTIS AG, priority 2003, published 2007).

Details: anticancer drugs targeted to inhibit the cell cycle, literature; cited from earlier work

## CCc1c2c(nc3ccc(OC(=O)N4CCC(N5CCCCC5)CC4)cc13)-c1cc3c(c(=O)n1C2)COC(=O)[C@]3(O)CC [CPT-11]
  drug-induced diarrhoea: Diarrhoea has been reported
